Source: ChEMBL document CHEMBL1255548, “Novel bisphosphonate inhibitors of the human farnesyl pyrophosphate synthase” (Bioorg Med Chem Lett, 2010)

Experiments:
[1] = molecular target: T1, Farnesyl pyrophosphate synthase (Homo sapiens) (UniProt P14324); assay: Inhibition of N-terminal His-tagged human FPPS expressed in Escherichia coli at 10 uM
T1 sequence (whole entry): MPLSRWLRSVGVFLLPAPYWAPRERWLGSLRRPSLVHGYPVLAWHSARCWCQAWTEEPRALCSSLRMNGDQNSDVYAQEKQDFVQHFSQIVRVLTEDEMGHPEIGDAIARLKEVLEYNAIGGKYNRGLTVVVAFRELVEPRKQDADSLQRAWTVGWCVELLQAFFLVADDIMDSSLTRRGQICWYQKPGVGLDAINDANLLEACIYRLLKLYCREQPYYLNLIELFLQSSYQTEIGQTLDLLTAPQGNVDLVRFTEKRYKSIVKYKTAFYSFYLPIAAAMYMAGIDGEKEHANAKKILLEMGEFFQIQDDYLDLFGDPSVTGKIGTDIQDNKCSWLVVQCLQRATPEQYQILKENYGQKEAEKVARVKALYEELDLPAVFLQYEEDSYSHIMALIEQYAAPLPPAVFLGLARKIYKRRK

[2] = molecular target: T2, Farnesyl pyrophosphate synthase (Homo sapiens, UniProt P14324); assay: Inhibition of N-terminal His-tagged human FPPS expressed in Escherichia coli
T2 sequence (P14324 whole entry): T1 sequence (whole entry)

[3] = molecular target: T1, Farnesyl pyrophosphate synthase (Homo sapiens); assay: Inhibition of N-terminal His-tagged human FPPS expressed in Escherichia coli at 1 uM

| Structure (SMILES) | inhibition [1] [%] | IC50 [2] [µM] | inhibition [3] [%] |
| --- | --- | --- | --- |
| O=P(O)(O)C(F)(Cc1cncc(-c2cccc3[nH]ncc23)c1)P(=O)(O)O | 81 |  |  |
| Cc1noc(C)c1-c1cncc(CC(F)(P(=O)(O)O)P(=O)(O)O)c1 | 86 |  |  |
| O=P(O)(O)C(F)(Cc1cncc(-c2cn[nH]c2)c1)P(=O)(O)O |  | 0.65 | > 50 |
| O=P(O)(O)C(F)(Cc1cncc(-c2ccc3[nH]ncc3c2)c1)P(=O)(O)O |  | 0.7 | > 50 |
